# From patent US20070191291A1, “Compound antibacterial drugs comprising n-acetyl-d-glucosamine” (priority 2003, published 2007)
# Like-named read-outs stand apart in the source and are kept apart here.
# Experiments:
# [1] = system: rats infected and not infected by Bacillus typhi murium; format: in vivo, Wistar rats; settings: rats infected or not by Bacillus typhi murium, consecutive week, 15 rats per group
# [2] = system: irritable bowel syndrome (IBS) caused by bacterial CGC; experiment: Test Example 5: preventing irritable bowel syndrome (IBS) caused by bacterial CGC; format: in vivo, rats; settings: for CGCs in the rat stools after one week of drug withdrawal / CGCs in the stools of the rats: rats, effective dosage for consecutive 10 days, 30 rats per group; for CGCs in the stools of the rats: stools observed during administration and within 1 week after drug withdrawal
# From the text: On this basis, the rats were subjected to stimulations such as electric stimulation, intragastric administration with fructus zanthoxyli water, cold, constraint etc. in order to induce IBS, and the incidence rates of IBS of two groups were observed.
# Listeria = experiment: Test Example 2: preventing formation of bacterial CGC in vitro (K-B method); format: cell-based
# Method: (§1) E. coli (No. 33310, purchased from Chengdu Institute of Biological Products, the Ministry of Public Health) was used in the tests. Grid design was performed by using antibiotic with different concentrations and N-acetyl-D-glucosamine having an amount of from 10 mg to 300 mg. Streak plates were conducted separately, and K-B method was employed for drugs. Colonies at marginal part of drug inhibition zone were picked and were observed under microscope. If cell length was more than 50 μm and cell number was more than 5 in each visual field, it was deemed as CGC positive and was marked with “+”; while if cell length was not greater than 50 μm and cell number was within the range from 0 to 4 in each visual field, it was deemed as CGC negative and was marked with “−”. At this time, the ratio of two substances was called “effective ratio”.
# (§2) Effects tests of compound preparation comprising N-acetyl-D-glucosamine and antibiotics for preventing the formation of bacterial CGC in vitro.
# (§3) The tests were carried out in vitro, wherein gram-negative amphimicrodes, gram-negative anaerobes and gram-positive aerobes were separately coated on streak plates, test drugs and control drugs were separately dissolved with same volume of sterile water for injection, 10 μl of each drug was used for preparing drug-sensitive paper, K-B method was employed in the tests of drugs, and the inhibition situations of CGC formation were observed.
# Diphtheroid bacillus = experiment: as above; format: cell-based
# Method: as §1, §2, §3
# Nucleic Acid Bacter = experiment: as above; format: cell-based
# Method: as §1, §2, §3
# Citro Bacter = experiment: as above; format: cell-based
# Method: as §1, §2, §3
# Klebsiella = experiment: as above; format: cell-based
# Method: as §1, §2, §3
# Bacteroides fragilis = experiment: as above; format: cell-based
# Method: as §1, §2, §3
# Bacillus cereus = experiment: as above; format: cell-based
# Method: as §1, §2, §3
# Bacillus proteus = experiment: as above; format: cell-based
# Method: as §1, §2, §3
# E. coli = experiment: as above; format: cell-based
# Method: as §1, §2, §3
# [3] = first of three values given respectively: electric stimulation
# [4] = second of three values given respectively: intragastric administration with fructus zanthoxyli water
# [5] = third of three values given respectively: cold, constraint etc.
# [6] = compound preparation 150 mg N-acetyl-D-glucosamine + 150 mg ampicillin, control ampicillin
# [7] = compound preparation 100 mg N-acetyl-D-glucosamine + 300 mg cefuroxime, control 300 mg cefuroxime
# [8] = compound preparation N-acetyl-D-glucosamine (100 mg) and chloramphenicol (400 mg), control chloramphenicol (400 mg)
# [9] = compound preparation 100 mg N-acetyl-D-glucosamine + 400 mg norfloxacin, control norfloxacin same dose
compound,measurement,setting,value
"CC1(C)S[C@@H]2[C@H](NC(=O)[C@H](N)c3ccccc3)C(=O)N2[C@H]1C(=O)O [Ampicillin, ampicillin]",positive rates of stool CGC and intestinal mucosa CGC,[1]; N-acetyl-D-glucosamine (100 mg)+ampicillin (200 mg) vs only ampicillin,100%
same,incidence rate of IBS,[2]; [3],33%
same,CGCs in the rat stools after one week of drug withdrawal,[2],still present
same,CGCs in the stools of the rats,[2],a large amount of CGCs appeared
same,incidence rate of IBS,[2]; [4],33%
same,incidence rate of IBS,[2]; [5],33%
same,CGC formation,Listeria; [6],"+ (If cell length was more than 50 μm and cell number was more than 5 in each visual field, it was deemed as CGC positive and was marked with “+”)"
same,CGC formation,Diphtheroid bacillus; [6],"+ (If cell length was more than 50 μm and cell number was more than 5 in each visual field, it was deemed as CGC positive and was marked with “+”)"
same,CGC formation,Nucleic Acid Bacter; [6],"+ (If cell length was more than 50 μm and cell number was more than 5 in each visual field, it was deemed as CGC positive and was marked with “+”)"
same,CGC formation,Citro Bacter; [6],"+ (If cell length was more than 50 μm and cell number was more than 5 in each visual field, it was deemed as CGC positive and was marked with “+”)"
same,CGC formation,Klebsiella; [6],"+ (If cell length was more than 50 μm and cell number was more than 5 in each visual field, it was deemed as CGC positive and was marked with “+”)"
same,CGC formation,Bacteroides fragilis; [6],"+ (If cell length was more than 50 μm and cell number was more than 5 in each visual field, it was deemed as CGC positive and was marked with “+”)"
same,CGC formation,Bacillus cereus; [6],"+ (If cell length was more than 50 μm and cell number was more than 5 in each visual field, it was deemed as CGC positive and was marked with “+”)"
same,CGC formation,Bacillus proteus; [6],"+ (If cell length was more than 50 μm and cell number was more than 5 in each visual field, it was deemed as CGC positive and was marked with “+”)"
same,CGC formation,E. coli; [6],"+ (If cell length was more than 50 μm and cell number was more than 5 in each visual field, it was deemed as CGC positive and was marked with “+”)"
"CO/N=C(\C(=O)N[C@@H]1C(=O)N2C(C(=O)O)=C(COC(N)=O)CS[C@H]12)c1ccco1 [Cefuroxime, cefuroxime]",positive rates of stool CGC and intestinal mucosa CGC,[1]; N-acetyl-D-glucosamine (100 mg)+cefuroxime (300 mg) vs antibiotic only,100%
same,incidence rate of IBS,[2]; [3],33%
same,CGCs in the rat stools after one week of drug withdrawal,[2],still present
same,CGCs in the stools of the rats,[2],a large amount of CGCs appeared
same,incidence rate of IBS,[2]; [4],33%
same,incidence rate of IBS,[2]; [5],33%
same,CGC formation,Listeria; [7],"+ (If cell length was more than 50 μm and cell number was more than 5 in each visual field, it was deemed as CGC positive and was marked with “+”)"
same,CGC formation,Diphtheroid bacillus; [7],"+ (If cell length was more than 50 μm and cell number was more than 5 in each visual field, it was deemed as CGC positive and was marked with “+”)"
same,CGC formation,Nucleic Acid Bacter; [7],"+ (If cell length was more than 50 μm and cell number was more than 5 in each visual field, it was deemed as CGC positive and was marked with “+”)"
same,CGC formation,Citro Bacter; [7],"+ (If cell length was more than 50 μm and cell number was more than 5 in each visual field, it was deemed as CGC positive and was marked with “+”)"
same,CGC formation,Klebsiella; [7],"+ (If cell length was more than 50 μm and cell number was more than 5 in each visual field, it was deemed as CGC positive and was marked with “+”)"
same,CGC formation,Bacteroides fragilis; [7],"+ (If cell length was more than 50 μm and cell number was more than 5 in each visual field, it was deemed as CGC positive and was marked with “+”)"
same,CGC formation,Bacillus cereus; [7],"+ (If cell length was more than 50 μm and cell number was more than 5 in each visual field, it was deemed as CGC positive and was marked with “+”)"
same,CGC formation,Bacillus proteus; [7],"+ (If cell length was more than 50 μm and cell number was more than 5 in each visual field, it was deemed as CGC positive and was marked with “+”)"
same,CGC formation,E. coli; [7],"+ (If cell length was more than 50 μm and cell number was more than 5 in each visual field, it was deemed as CGC positive and was marked with “+”)"
"O=C(N[C@H](CO)[C@H](O)c1ccc([N+](=O)[O-])cc1)C(Cl)Cl [Chloramphenicol, chloramphenicol]",positive rates of stool CGC and intestinal mucosa CGC,[1]; N-acetyl-D-glucosamine (100 mg)+chloramphenical (400 mg) vs only chloramphenicol,100%
same,incidence rate of IBS,[2]; [3],33%
same,CGCs in the rat stools after one week of drug withdrawal,[2],still present
same,CGCs in the stools of the rats,[2],a large amount of CGCs appeared
same,incidence rate of IBS,[2]; [4],33%
same,incidence rate of IBS,[2]; [5],33%
same,CGC formation,Listeria; [8],"+ (If cell length was more than 50 μm and cell number was more than 5 in each visual field, it was deemed as CGC positive and was marked with “+”)"
same,CGC formation,Diphtheroid bacillus; [8],"+ (If cell length was more than 50 μm and cell number was more than 5 in each visual field, it was deemed as CGC positive and was marked with “+”)"
same,CGC formation,Nucleic Acid Bacter; [8],"+ (If cell length was more than 50 μm and cell number was more than 5 in each visual field, it was deemed as CGC positive and was marked with “+”)"
same,CGC formation,Citro Bacter; [8],"+ (If cell length was more than 50 μm and cell number was more than 5 in each visual field, it was deemed as CGC positive and was marked with “+”)"
same,CGC formation,Klebsiella; [8],"+ (If cell length was more than 50 μm and cell number was more than 5 in each visual field, it was deemed as CGC positive and was marked with “+”)"
same,CGC formation,Bacteroides fragilis; [8],"+ (If cell length was more than 50 μm and cell number was more than 5 in each visual field, it was deemed as CGC positive and was marked with “+”)"
same,CGC formation,Bacillus cereus; [8],"+ (If cell length was more than 50 μm and cell number was more than 5 in each visual field, it was deemed as CGC positive and was marked with “+”)"
same,CGC formation,Bacillus proteus; [8],"+ (If cell length was more than 50 μm and cell number was more than 5 in each visual field, it was deemed as CGC positive and was marked with “+”)"
same,CGC formation,E. coli; [8],"+ (If cell length was more than 50 μm and cell number was more than 5 in each visual field, it was deemed as CGC positive and was marked with “+”)"
"CCn1cc(C(=O)O)c(=O)c2cc(F)c(N3CCNCC3)cc21 [Norfloxacin, norfloxacin]",CGC formation,Listeria; [9],"+ (If cell length was more than 50 μm and cell number was more than 5 in each visual field, it was deemed as CGC positive and was marked with “+”)"
same,CGC formation,Diphtheroid bacillus; [9],"+ (If cell length was more than 50 μm and cell number was more than 5 in each visual field, it was deemed as CGC positive and was marked with “+”)"
same,CGC formation,Nucleic Acid Bacter; [9],"+ (If cell length was more than 50 μm and cell number was more than 5 in each visual field, it was deemed as CGC positive and was marked with “+”)"
same,CGC formation,Citro Bacter; [9],"+ (If cell length was more than 50 μm and cell number was more than 5 in each visual field, it was deemed as CGC positive and was marked with “+”)"
same,CGC formation,Klebsiella; [9],"+ (If cell length was more than 50 μm and cell number was more than 5 in each visual field, it was deemed as CGC positive and was marked with “+”)"
same,CGC formation,Bacteroides fragilis; [9],"+ (If cell length was more than 50 μm and cell number was more than 5 in each visual field, it was deemed as CGC positive and was marked with “+”)"
same,CGC formation,Bacillus cereus; [9],"+ (If cell length was more than 50 μm and cell number was more than 5 in each visual field, it was deemed as CGC positive and was marked with “+”)"
same,CGC formation,Bacillus proteus; [9],"+ (If cell length was more than 50 μm and cell number was more than 5 in each visual field, it was deemed as CGC positive and was marked with “+”)"
same,CGC formation,E. coli; [9],"+ (If cell length was more than 50 μm and cell number was more than 5 in each visual field, it was deemed as CGC positive and was marked with “+”)"
CO[C@@]1(NC(=O)Cc2cccs2)C(=O)N2C(C(=O)O)=C(COC(N)=O)CS[C@@H]21 [cefoxitin],positive rates of stool CGC and intestinal mucosa CGC,[1]; N-acetyl-D-glucosamine (100 mg)+cefoxitin (150 mg) vs only cefoxitin,100%
same,incidence rate of IBS,[2]; [3],33%
same,CGCs in the rat stools after one week of drug withdrawal,[2],still present
same,CGCs in the stools of the rats,[2],a large amount of CGCs appeared
same,incidence rate of IBS,[2]; [4],33%
same,incidence rate of IBS,[2]; [5],33%
O=C(O)c1cn(C2CC2)c2cc(N3CCNCC3)c(F)cc2c1=O [ciprofloxacin],positive rates of stool CGC and intestinal mucosa CGC,[1]; N-acetyl-D-glucosamine (100 mg)+ciprofloxacin (500 mg) vs only ciprofloxacin,100%
